Laboratory results reported in paper PMC9694711, “Synthesis of Paclitaxel Derivatives for Remote Loading into Liposomes and Improved Therapeutic Effect” (Molecules, 2022).

What was measured:
[1] = Liposome loading with calcium acetate gradients; assay type: physicochemical; conditions: sediment precipitated after loading
Excerpt: Since boronic acid RB(OH)2 is not only a weak acid, but also a structure that can complex with copper ions, ATP and saccharides, we investigated whether different inner phases could be employed to encapsulate compounds (4a, 4d, 13a, 17a, 17c) with good therapeutic index.

[2] = system: colon cancer cell line HCT-116; test: MTT assay, cytotoxicity on HCT-116; assay type: cell-based, human; conditions: for GI50: Homo sapiens, HCT-116, MTT, 72 h, mean of two independent determinations; for TI (LO2/HCT-116): therapeutic index, GI50 LO2 / GI50 HCT-116
Protocol: (§1) MTT assay was applied to verify the rationality of the molecular combination strategy. The cytotoxicity of the compounds was evaluated on lung cancer cell line A549, colon cancer cell line HCT-116, breast cancer cell line 4T1 and normal hepatocyte cell line LO2. Paclitaxel was used as a positive drug. […] The therapeutic index (TI) for LO2/HCT-116, LO2/A549 and LO2/4T1 of active compounds 4a, 4d, 13a, 17a, 17c and paclitaxel are shown in Table 2.
(§2) Cells were inoculated in 96-well plates (cell density 2 × 10^4 cells/well) followed by incubation for 24 h at 37 °C. Paclitaxel and target compounds were added to the corresponding well. Subsequently, the cultures were incubated for 72 h. After the MTT solution (50 µL, 2 mg/mL) was added to cultures, the plates were incubated for an additional 4 h. Purple colored formazan crystals were dissolved in 200 µL DMSO, and the absorbance was recorded at 570 nm using Synergy HT, Bio-Tek (Winooski, VT, USA).

[3] = Liposome loading with copper ion gradients (encapsulation efficiency by HPLC); assay type: physicochemical; conditions: copper ion gradient
Excerpt: Vyxeos® is a liposomal formulation of a fixed molar ratio (1:5) combination of the antineoplastic drugs daunorubicin (DN) and cytarabine (Cyt). Daunorubicin is subsequently actively encapsulated with high efficiency through complexation with intra-liposomal copper. The copper gluconate buffer forms a complex with daunorubicin at a ratio of 1:1 to 1:2 [25]. Referring to Vyxeos®, copper ion was selected as a complexed metal ion in the inner phase. […] Therefore, compound 4d was selected to investigate the effect of the anions on the loading efficiency. Among them, only the neutral gluconate copper was a suitable inner phase to facilitate the encapsulation of compound 4d (Table 3).
(§3) The reason for the stability of the neutral formulations was potentially due to the fact that PBA was effectively […] and interacted with copper more tightly in the neutral condition compared with the acidic condition. Thus, the neutral Cu-gluconate was selected as the inner phase. The concentration of copper ions was also investigated, showing that the higher the copper concentration, the higher the EE. Considering the safety of copper ions, 300 mM was chosen. […] The EE of compound 4d active loading liposome was more than 95% with copper ion gradient. Furthermore, we also evaluated the ATP and saccharides as remote gradients with the optimal formulation of copper ion gradients.
(§4) Blank liposomes were prepared for membrane hydration. HSPC, chol and DSPE-PEG2000 were dissolved using chloroform at a mass ratio of 3:1:0.02 and then spin-evaporated at 37 °C. The obtained film was then hydrated with 300 mM Cu-Glu (pH 7.4) at 65 °C for 30 min. The multi-layer vesicles were subsequently put into an extruder and passed through polycarbonate membranes with pore sizes of 400 nm, 200 nm and 100 nm 12 times at 65 °C containing 20 mM HEPES, 15 mM EDTA and 300 mM sucrose for removing the un-encapsulated Cu^2+, and then EDTA was removed with 20 mM HEPES and 300 mM sucrose buffer (pH 7.4, adjusted with triethylamine). Compound 4d was dissolved in DMSO and slowly added into the liposome at 65 °C for 30 min and then quenched in an ice bath for 5 min (the drug to lipid ratio was 1:10). The encapsulation efficiency and drug loading efficiency of compound 4d were determined using HPLC. The morphologies of liposomes were characterized using a transition electron microscope (TEM, Hitachi HT7700, Tokyo, Japan); then, their size, PDI and Zeta potential were measured using a Zetasizer Nano ZS90 (Malvern, UK).

[4] = system: breast cancer cell line 4T1; test: MTT assay, cytotoxicity on 4T1; assay type: cell-based, mouse; conditions: for inhibition % at fixed concentration, 4T1 (printed in GI50 column): @100 nM; for GI50: Mus musculus, MTT, 72 h, mean of two independent determinations; for TI (LO2/4T1): therapeutic index, GI50 LO2 / GI50 4T1
Protocol: as §1, §2

[5] = system: lung cancer cell line A549; test: MTT assay, cytotoxicity on A549; assay type: cell-based, human; conditions: for GI50: Homo sapiens, A549, MTT, 72 h, mean of two independent determinations; for TI (LO2/A549): therapeutic index, GI50 LO2 / GI50 A549
Protocol: as §1, §2

[6] = system: normal hepatocyte cell line LO2; test: MTT assay, cytotoxicity on normal cell LO2; assay type: cell-based; conditions: for GI50: Hepatocyte, MTT, 72 h, mean of two independent determinations; for inhibition % at fixed concentration, LO2 (printed in GI50 column): @2 μM
Protocol: as §1, §2

[7] = Characterisation of compound 4d liposome (size, PDI, zeta potential, loading, storage stability); assay type: physicochemical; conditions: optimal formulation, drug to lipid ratio 1:10
Protocol: The morphology of compound 4d liposome is shown in Figure 3 and Figure 4, with spherical particles, a narrow size distribution at ~110 nm and zeta potential at ~−15 mV (Table S2).
as §4

[8] = Liposome loading with ATP and saccharides gradients; assay type: physicochemical; conditions: gradient ATP
Protocol: as §3
Thus, the copper ion gradient was chosen for further experiments.
Blank liposomes were prepared for membrane hydration. HSPC, chol and DSPE-PEG2000 were dissolved using chloroform at a mass ratio of 3:1:0.02 and then spin-evaporated at 37 °C. The obtained film was then hydrated with 300 mM Cu-Glu (pH 7.4) at 65 °C for 30 min. […] The encapsulation efficiency and drug loading efficiency of compound 4d were determined using HPLC. The morphologies of liposomes were characterized using a transition electron microscope (TEM, Hitachi HT7700, Tokyo, Japan); then, their size, PDI and Zeta potential were measured using a Zetasizer Nano ZS90 (Malvern, UK).

4T1 xenograft tumor = test: In vivo antitumor efficacy and toxicity, 4T1 tumor model; conditions: 8 mg/kg, 4 times; mice bearing 4T1 tumor
Protocol: A549 and HCT-116 cells are human tumor cells, while 4T1 cells are mouse tumor cells. Based on the availability of the tumor model, mice bearing a 4T1 xenograft tumor were used to study the in vivo antitumor efficacy of the compound 4d liposome. As depicted in Figure 6a, there was difference between compound 4d (8 mg/kg) and the paclitaxel control group (8 mg/kg).
The antitumor effect was evaluated by the nude mice armpit tumor model bearing breast cancer 4T1 cells. When the average tumor volume reached 100 mm^3, the treatment was initiated at a 3-day interval for 12 days. The mice were randomly divided into five groups (n = 5 per group) receiving different palictaxel at 8 mg/kg as follows: saline (the control group), taxol, compound 4d, compound 4d liposome, high dose 4d liposome (3 times the dose, immediately 24 mg/kg). Tumor volume (V = length × width^2/2) and body weight were recorded. At the end of the experiment, mice were sacrificed. The obtained tumors were accurately weighed to calculate the tumor burden (Wtumor/Wbody) and tumor inhibition rate [TIR= (Wcontrol tumor − Wsample tumor)/Wcontrol tumor].

SMILES	encapsulation into liposomes by calcium acetate gradients [1]	GI50 [2] [nM]	TI (LO2/HCT-116) [2]	loading into liposomes, copper ion as complexed metal ion in the inner phase [3]	inhibition % at fixed concentration, 4T1 (printed in GI50 column) [4] [%@100 nM]	GI50 [5] [nM]	TI (LO2/A549) [5]	GI50 [6] [nM]	Loading efficiency (%) [7] [%]	Encapsulated efficiency, optimal formulation ([3]; drug-to-lipid ratio of 0.1 w/w (1:10)) [%]	GI50 [4] [nM]	TI (LO2/4T1) [4]	loading with inner phase of ATP [8]	inhibition % at fixed concentration, LO2 (printed in GI50 column) [6] [%@2 μM]	inhibition % at fixed concentration, HCT-116 (printed in GI50 column) ([2]; @6.25 nM) [%@6.25 nM]	inhibition % at fixed concentration, A549 (printed in GI50 column) ([5]; @6.25 nM) [%@6.25 nM]	tumor inhibition rate (4T1 xenograft tumor) [%]
CC(=O)OC1C(=O)C2(C)C(O)CC3OCC3(OC(C)=O)C2C(OC(=O)c2ccccc2)C2(O)CC(OC(=O)C(OC(=O)CCC(=O)OCc3ccc(B(O)O)cc3)C(NC(=O)c3ccccc3)c3ccccc3)C(C)=C1C2(C)C (stereo not drawn) [Compound 4a, 2’-O-[4-((4-boronobenzyl)oxy)-4-oxobutyryl]taxol]	not feasible	73.7	25.4	failed in loading into the liposomes	20.85	68.5	27.4	1880	–	–	–	–	–	–	–	–	–
CC(=O)OC1C(=O)C2(C)C(O)CC3OCC3(OC(C)=O)C2C(OC(=O)c2ccccc2)C2(O)CC(OC(=O)C(OC(=O)CSSCC(=O)OCc3ccc(B(O)O)cc3)C(NC(=O)c3ccccc3)c3ccccc3)C(C)=C1C2(C)C (stereo not drawn) [Compound 4d, 2’-O-[2-((2-((4-boronobenzyl)oxy)-2-oxoethyl)disulfaneyl)acetyl]taxol]	not feasible	13	49.1	–	–	13.9	45.9	639	9.02	> 95	69.8	9.2	not successful	–	–	–	–
CC(=O)OC1C(=O)C2(C)C(O)CC3OCC3(OC(C)=O)C2C(OC(=O)c2ccccc2)C2(O)CC(OC(=O)C(OC(=O)OCCCCCB(O)O)C(NC(=O)c3ccccc3)c3ccccc3)C(C)=C1C2(C)C (stereo not drawn) [Compound 10a, 2’-O-[5-boronopentyl carbonate]taxol]	–	> 100	–	–	–	> 100	–	–	–	–	> 100	–	–	32.81	–	–	–
CC(=O)OC1C(=O)C2(C)C(O)CC3OCC3(OC(C)=O)C2C(OC(=O)c2ccccc2)C2(O)CC(OC(=O)C(OC(=O)OCc3ccc(B(O)O)cc3)C(NC(=O)c3ccccc3)c3ccccc3)C(C)=C1C2(C)C (stereo not drawn) [Compound 13a, 2’-O-[4-boronobenzyl carbonate]taxol]	not feasible	8.73	111.3	failed in loading into the liposomes	–	22.5	43.3	972	–	–	92.9	10.5	–	–	–	–	–
CC(=O)OC1C(=O)C2(C)C(O)CC3OCC3(OC(C)=O)C2C(OC(=O)c2ccccc2)C2(O)CC(OC(=O)C(OC(=O)CCB(O)O)C(NC(=O)c3ccccc3)c3ccccc3)C(C)=C1C2(C)C (stereo not drawn) [Compound 17a, 2’-O-[3-boronopropanoyl]taxol]	not feasible	7.98	89.5	failed in loading into the liposomes	–	21.8	32.7	715	–	–	68.1	10.5	–	–	–	–	–
CC(=O)OC1C(=O)C2(C)C(O)CC3OCC3(OC(C)=O)C2C(OC(=O)c2ccccc2)C2(O)CC(OC(=O)C(OC(=O)CCCB(O)O)C(NC(=O)c3ccccc3)c3ccccc3)C(C)=C1C2(C)C (stereo not drawn) [Compound 17b, 2’-O-[4-boronobutanoyl]taxol]	–	38.3	–	–	17.89	69.2	–	–	–	–	–	–	–	38.06	–	–	–
CC(=O)OC1C(=O)C2(C)C(O)CC3OCC3(OC(C)=O)C2C(OC(=O)c2ccccc2)C2(O)CC(OC(=O)C(OC(=O)CCCCB(O)O)C(NC(=O)c3ccccc3)c3ccccc3)C(C)=C1C2(C)C (stereo not drawn) [Compound 17c, 2’-O-[5-boronopentanoyl]taxol]	not feasible	6.38	222.1	failed in loading into the liposomes	–	44.8	31.6	1420	–	–	87.2	16.3	–	–	–	–	–
CC(=O)O[C@H]1C(=O)[C@@]2(C)[C@H]([C@H](OC(=O)c3ccccc3)[C@]3(O)C[C@H](OC(=O)[C@H](O)[C@@H](NC(=O)c4ccccc4)c4ccccc4)C(C)=C1C3(C)C)[C@]1(OC(C)=O)CO[C@@H]1C[C@@H]2O [paclitaxel]	–	–	–	–	–	–	–	69.1	–	–	25.3	2.7	–	–	81.86	64.96	58.5
